Measurements from ChEMBL document CHEMBL3112541 (Bioorg Med Chem, 2014).

Experiments:
Carbonic anhydrase 9 = Carbonic anhydrase 9 (Homo sapiens, UniProt Q16790)
Description: Inhibition of human transmembrane carbonic anhydrase 9 by stopped-flow CO2 hydration assay

Carbonic anhydrase 2 = Carbonic anhydrase 2 (Homo sapiens, UniProt P00918)
Description: Inhibition of human cytosolic carbonic anhydrase 2 by stopped-flow CO2 hydration assay

Carbonic anhydrase 1 = Carbonic anhydrase 1 (Homo sapiens, UniProt P00915)
Description: Inhibition of human cytosolic carbonic anhydrase 1 by stopped-flow CO2 hydration assay

Carbonic anhydrase 12 = Carbonic anhydrase 12 (Homo sapiens, UniProt O43570)
Carbonic anhydrase 12, sequence (O43570 whole entry): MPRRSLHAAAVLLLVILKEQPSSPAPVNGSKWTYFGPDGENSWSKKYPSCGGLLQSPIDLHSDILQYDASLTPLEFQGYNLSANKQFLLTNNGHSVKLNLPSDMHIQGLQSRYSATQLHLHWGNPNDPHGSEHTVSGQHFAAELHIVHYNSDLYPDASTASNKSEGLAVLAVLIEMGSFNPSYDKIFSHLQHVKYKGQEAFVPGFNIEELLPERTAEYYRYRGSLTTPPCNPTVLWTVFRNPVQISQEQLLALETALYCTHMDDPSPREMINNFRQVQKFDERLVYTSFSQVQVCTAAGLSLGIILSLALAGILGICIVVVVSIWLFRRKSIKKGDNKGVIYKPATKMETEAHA
Description: Inhibition of human transmembrane carbonic anhydrase 12 by stopped-flow CO2 hydration assay

Carbonic anhydrase 1, sequence (P00915 whole entry): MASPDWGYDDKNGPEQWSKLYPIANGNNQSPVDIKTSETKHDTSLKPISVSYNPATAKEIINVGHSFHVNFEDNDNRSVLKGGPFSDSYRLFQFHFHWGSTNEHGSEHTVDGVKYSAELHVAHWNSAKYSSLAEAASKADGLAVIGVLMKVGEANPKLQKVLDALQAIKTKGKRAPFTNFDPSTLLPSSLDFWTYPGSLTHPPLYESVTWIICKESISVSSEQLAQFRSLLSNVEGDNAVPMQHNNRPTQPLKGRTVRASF

| Ki (Carbonic anhydrase 9) | Ki (Carbonic anhydrase 2) | Ki (Carbonic anhydrase 1) | Ki (Carbonic anhydrase 12) | Compound |
| --- | --- | --- | --- | --- |
| > 10 µM | > 10 µM | > 10 µM | – | NS(=O)(=O)c1ccccc1N1C(=O)c2ccc([N+](=O)[O-])cc2C1=O |
| 8.84 µM | – | – | – | NS(=O)(=O)c1ccc(CN2C(=O)c3ccc([N+](=O)[O-])cc3C2=O)cc1 |
| 0.873 µM | – | – | – | NS(=O)(=O)c1ccc(CN2C(=O)c3cccc([N+](=O)[O-])c3C2=O)cc1 |
| 8.65 µM | – | – | – | NS(=O)(=O)c1ccc(N2C(=O)c3ccc([N+](=O)[O-])cc3C2=O)cc1 |
| 10 µM | – | – | – | NS(=O)(=O)c1cccc(N2C(=O)c3ccc([N+](=O)[O-])cc3C2=O)c1 |
| > 10 µM | – | – | – | NS(=O)(=O)c1ccc(CCN2C(=O)c3ccc([N+](=O)[O-])cc3C2=O)cc1 |
| 8.35 µM | – | – | – | NS(=O)(=O)c1cccc(N2C(=O)c3cccc([N+](=O)[O-])c3C2=O)c1 |
| 7.82 µM | – | > 10 µM | > 10 µM | NS(=O)(=O)c1ccccc1N1C(=O)c2cccc([N+](=O)[O-])c2C1=O |
